Source: paper PMC5893428, “Heligmosomoides polygyrus Venom Allergen-like Protein-4 (HpVAL-4) is a sterol binding protein” (International Journal for Parasitology, 2018)

Target: T1, HpVAL-4 (Heligmosomoides polygyrus, UniProt A0A183GMB4)
T1 construct: mature protein, Arabidopsis chitinase signal peptide for secretion, no tag mentioned; Nicotiana benthamiana leaf apoplast; N-glycosylated
Experiment: radioligand binding, adsorption to Q-Sepharose, scintillation counting

T1 sequence (A0A183GMB4 entry or part of it): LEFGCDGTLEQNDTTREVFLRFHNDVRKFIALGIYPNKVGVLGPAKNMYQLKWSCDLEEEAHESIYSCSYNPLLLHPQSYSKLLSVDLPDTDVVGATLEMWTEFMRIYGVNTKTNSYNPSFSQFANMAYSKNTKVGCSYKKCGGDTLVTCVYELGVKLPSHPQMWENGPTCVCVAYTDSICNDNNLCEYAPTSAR

CC(C)CCC[C@@H](C)[C@H]1CC[C@H]2[C@@H]3CC=C4C[C@@H](O)CC[C@]4(C)[C@H]3CC[C@]12C [cholesterol] gave a Kd of 1.53 µM.
